Source: publication PMC11345829, “Discovery of Potent Isoquinolinequinone N-Oxides to Overcome Cancer Multidrug Resistance” (Journal of Medicinal Chemistry, 2024)

Experiments:
[1] = tested on: NCI-H460/R; test: SRB cell growth inhibition assay; assay type: cell-based, human; conditions: for selectivity ratio NSCLC: GI50 sensitive NCI-H460 / GI50 MDR NCI-H460/R; for GI50: Homo sapiens, NCI-H460, SRB assay, 48 h, NSCLC MDR, mean ± SEM
Description: Two distinct pairs of counterpart drug-sensitive and MDR human tumor cell lines were used, namely the non-small lung cancer (NSCLC) NCI-H460 (same cell line as in the NCI screen) and its MDR counterpart cell line NCI-[…] and the colorectal cancer DLD1 and its MDR counterpart cell line DLD1-TxR (Table 3). The screening was performed using the SRB assay, and the GI50 for each compound was determined by interpolation on the attained concentration-response curves and compared with NCI60 screening data (SI, Figures S62-S63; Table S21). Two pairs of drug-sensitive and multidrug-resistant (MDR) cell lines from human nonsmall cell lung cancer (NSCLC), NCI-H460 and NCI-[…], and colorectal cancer, DLD1 and DLD1-TxR, kindly provided by Dr M. […] The A549 cell line was maintained in Dulbecco's Modified Eagle Medium (DMEM) supplemented with 4.5 g/L Glucose with UltraGlutamine with sodium pyruvate (Lonza, Basel Stücki, Switzerland), enriched with 10% fetal bovine serum (FBS; Biowest, Nuaillé, France). […] For the sulforhodamine B (SRB) and 3D cell culture assays, the media were supplemented with 5% FBS. The remaining experiments were performed with medium supplemented with 10% FBS. […] The SRB assay was performed as previously described.[78],[79] Briefly, after fixing cells with 10% (w/v) ice-cold trichloroacetic acid (Merck Life Science), the proteins were stained with 0.4% of SRB (Merck Life Science) in acetic acid (Merck Life Science). Following washing steps in acetic acid, the bound dye was solubilized with 10 mM Tris base solution (Merck Life Science). Absorbance was measured at 510 nm in a multiplate reader (Synergy Mx, Biotek Instruments Inc., Winooski, Vermont, USA) using the Gen5 software (Biotek Instruments Inc.).

[2] = tested on: NCI-H460; test: SRB cell growth inhibition assay; assay type: cell-based; conditions: Homo sapiens, 48 h, NSCLC sensitive, mean ± SEM
From the text: (§1) Taking into consideration the promising results of preliminary NCI screening, nine compounds (1, 2, 3, 4, 5, 20, 23, 24, 25) were selected for further screening in two counterpart pairs of sensitive and MDR cell lines. […] Two distinct pairs of counterpart drug-sensitive and MDR human tumor cell lines were used, namely the non-small lung cancer (NSCLC) NCI-H460 (same cell line as in the NCI screen) and its MDR counterpart cell line NCI-H460/R and the colorectal cancer DLD1 and its MDR counterpart cell line DLD1-TxR (Table 3). The screening was performed using the SRB assay, and the GI50 for each compound was determined by interpolation on the attained concentration−response curves and compared with NCI60 screening data (SI, Figures S62−S63; Table S21).
(§2) Two pairs of drug-sensitive and multidrug-resistant (MDR) cell lines from human nonsmall cell lung cancer (NSCLC), NCI-H460 and NCI-H460/R, and colorectal cancer, DLD1 and DLD1-TxR, kindly provided by Dr M. Pešić (Belgrade, Serbia), were used to evaluate the growth inhibition potential of the compounds 1, 2, 3, 4, 5, 20, 23, 24, an 25.[76],[77] Additionally, growth inhibition assays were performed with compound 25 on two other NSCLC cell lines, A549 and NCI-H322, obtained from the American Type Culture Collection (ATCC) and the European Collection of Authenticated Cell Cultures, respectively. The A549 cell line was maintained in Dulbecco’s Modified Eagle Medium (DMEM) supplemented with 4.5 g/L Glucose with UltraGlutamine with sodium pyruvate (Lonza, Basel Stücki, Switzerland), enriched with 10% fetal bovine serum (FBS; Biowest, Nuaillé, France). The lung fibroblast MRC-5 cell line and the remaining NSCLC and colorectal cancer cell lines were cultured in Roswell Park Memorial Institute (RPMI) 1640 (with stable glutamine and 25 mM HEPES) medium (Biowest), supplemented with 10% fetal bovine serum. […] For the sulforhodamine B (SRB) and 3D cell culture assays, the media were supplemented with 5% FBS. The remaining experiments were performed with medium supplemented with 10% FBS.
(§3) Cells were seeded at a previously determined optimal cell concentration (5.0 × 10^4 cells/mL for NSCLC cells and the nontumorigenic MRC-5 cell line and 1.0 × 10^5 cells/mL for colorectal cancer cells) and incubated at 37 °C for 24 h. […] The SRB assay was performed as previously described.[78],[79] Briefly, after fixing cells with 10% (w/v) ice-cold trichloroacetic acid (Merck Life Science), the proteins were stained with 0.4% of SRB (Merck Life Science) in acetic acid (Merck Life Science). Following washing steps in acetic acid, the bound dye was solubilized with 10 mM Tris base solution (Merck Life Science). Absorbance was measured at 510 nm in a multiplate reader (Synergy Mx, Biotek Instruments Inc., Winooski, Vermont, USA) using the Gen5 software (Biotek Instruments Inc.).

[3] = tested on: DLD1; test: SRB cell growth inhibition assay; assay type: cell-based; conditions: Homo sapiens, DLD-1, 48 h, colorectal cancer sensitive, mean ± SEM
From the text: as §1, §2, §3

[4] = tested on: NCI-H460; test: NCI60 five-dose GI50 (NCI data); assay type: cell-based; conditions: Homo sapiens, NCI data provided for comparison, read-out: NSCLC NCI-H460 GI50 (NCI)
From the text: The concentration−response curve generated enables the determination of three criteria, GI50 (drug concentration at which 50% of cell growth is inhibited), total growth inhibition (TGI) and LC50 (drug concentration at which 50% of tumor cells are killed) which can be used to compare effectiveness against any compound tested in the screen since its inception.
S2.1 NCI Screening Assay Experimental details
NCI Screening Assay Experimental: Cancer cell growth assays (NCI60 screening) 5,6 One-dose study: Tested compounds were initially solubilised in DMSO, diluted into RPMI 1640 and 5% fetal bovine serum/L-glutamine, and added to 96-well plates containing cell lines previously cultured for 24 h. After 48 h incubation, the media were removed, and the cells were fixed and stained with sulforhodamine B to determine overall percent growth/ total protein content. Unbound dye was removed with five washes of 1% acetic acid, and the plates were allowed to air dry. The dye was then resolubilised in Tris buffer, and the colorimetric absorbance was measured (515 nm). Growth inhibition was measured relative to the response generated from proliferating cells cultured under identical conditions for 48 h. Data from one-dose experiments pertains to the percentage growth at […]
Five-dose study: Serial 5 × 10-fold dilution from an initial DMSO stock solution was performed, prior to incubation at each individual concentration (10 nM, 100 nM, 1 μM, 10 μM and 100 μM). Using seven absorbance measurements (time zero (Tz), control growth (C), and test growth in the presence of drug at the five concentration levels (Ti)), the percentage growth was calculated at each of the drug concentrations levels. Percentage growth inhibition was calculated as: [(Ti − Tz)/(C − Tz)] × 100 for concentrations for which Ti ≥ Tz, [(Ti − Tz)/Tz] × 100 for concentrations for which Ti < Tz. Three dose response parameters were calculated for each experimental agent. […]
was calculated from [(Ti − Tz)/(C − Tz)] × 100 = 50, which is the drug concentration resulting in a 50% reduction in the net protein increase (as measured by sulforhodamine B staining) in control cells during the drug incubation. The drug concentration resulting in total growth inhibition (TGI) was calculated from Ti = Tz. The LC50 (concentration of drug resulting in a 50% reduction in the measured protein at the end of the drug treatment as compared to that at the beginning) indicating a net loss of cells following treatment was calculated from [(Ti − Tz)/Tz] × 100 = −50. Values were calculated for each of these three parameters if the level of activity was reached; however, if the effect was not reached or was exceeded, the value for that parameter was expressed as greater or less than the maximum or minimum concentration tested.

[5] = tested on: NCI-ADR/RES; parameters: method as in PMID 31894828; conditions: MDR cell line, high P-gp; read-out: growth inhibition (GI50) NCI/ADR-RES; cited from earlier work
[6] = tested on: DLD1-TxR; test: SRB cell growth inhibition assay; assay type: cell-based, human; conditions: for selectivity ratio colorectal cancer: GI50 sensitive DLD1 / GI50 MDR DLD1-TxR; for GI50: Homo sapiens, SRB assay, 48 h, colorectal cancer MDR, mean ± SEM
Description: Two distinct pairs of counterpart drug-sensitive and MDR human tumor cell lines were used, namely the non-small lung cancer (NSCLC) NCI-H460 (same cell line as in the NCI screen) and its MDR counterpart cell line NCI-H460/R and the colorectal cancer DLD1 and its MDR counterpart cell line DLD1-TxR (Table 3). The screening was performed using the SRB assay, and the GI50 for each compound was determined by interpolation on the attained concentration−response curves and compared with NCI60 screening data (SI, Figures S62−S63; Table S21).
as §2, §3

[7] = tested on: NCI60 tumor cell line panel; parameters: method as in PMID 31894828; conditions: against 53 human tumor cell lines; cited from earlier work
[8] = tested on: NCI-H460/R spheroids; test: Cell Titer-Glo 3D spheroid viability assay; assay type: cell-based, human; conditions: 48 h; 25 at 0.35 and 0.7 μM; etoposide 2 μM
Description: Results are presented as the % of luciferase luminescence relative to the “blank” cells (medium).
Spheroid formation was conducted in 12-series agarose 3D Petri Dish micromolds (MicroTissues Technology, MicroTissues Inc., Sigma-Aldrich). The agarose micromolds were prepared using 1% agarose in a 0.9% NaCl solution and then placed in 12-well plates and equilibrated with RPMI supplemented with 10% FBS for at least 2 h before cell seeding. Cell suspensions corresponding to 500 cells per spheroid of the NSCLC cell lines (NCI-H460 and NCI-H460/R), and 1000 cells per spheroid of the colorectal cancer cell lines (DLD1 and DLD1-TxR) were seeded in the corresponding micromolds. […] Spheroid formation was monitored with the Leica DMi1 microscope. […] At the end of the treatment, images from at least 8 different spheroids per condition were captured on the Leica Dmi1 microscope, and posteriorly analyzed with the automated open-source software AnaSP.[82] Spheroid parameters, such as equivalent diameter, circularity, and compactness, were calculated.
Spheroid viability was determined through the luminescence-based Cell Titer-Glo 3D cell viability assay (Promega). […] The plate was then incubated in the dark for 5 min with agitation and allowed to rest for 25 min before luminescence measurement. Luminescence was quantified using the microplate reader Synergy MX coupled with the GEN5 software. […]

COC(=O)c1c2c(c(C)[n+]([O-])c1C)C(=O)C(NCc1ccccc1)=CC2=O [Compound 1]
selectivity ratio NSCLC [1]: 1.3 | GI50 [1]: 2290 ± 280 nM | GI50 [2]: 3060 ± 150 nM | GI50 [3]: 4890 ± 510 nM | GI50 [4]: 2720 nM | GI50 [5]: 2670 nM | selectivity ratio colorectal cancer [6]: 1.7 | GI50 [6]: 2970 ± 130 nM | GI50 [7]: 2520 nM

COC(=O)c1c2c(c(C)[n+]([O-])c1C)C(=O)C=CC2=O [Compound 3]
selectivity ratio NSCLC [1]: 2 | GI50 [1]: 4280 ± 1080 nM | GI50 [2]: 8430 ± 1410 nM | GI50 [3]: 6620 ± 350 nM | GI50 [4]: 731 nM | selectivity ratio colorectal cancer [6]: 1.4 | GI50 [6]: 4800 ± 70 nM | GI50 [7]: 1750 nM

COc1cc([C@@H]2c3cc4c(cc3[C@@H](O[C@@H]3O[C@@H]5CO[C@@H](C)O[C@H]5[C@H](O)[C@H]3O)[C@H]3COC(=O)[C@H]23)OCO4)cc(OC)c1O [etoposide, reference compound]
viability of NCI-H460/R spheroids [8]: did not significantly affect the viability of the spheroids

CC(=O)O[C@H]1C(=O)[C@@]2(C)[C@H]([C@H](OC(=O)c3ccccc3)[C@]3(O)C[C@H](OC(=O)[C@H](O)[C@@H](NC(=O)c4ccccc4)c4ccccc4)C(C)=C1C3(C)C)[C@]1(OC(C)=O)CO[C@@H]1C[C@@H]2O [paclitaxel, reference compound]
GI50 [3]: 20 ± 3 nM | GI50 [6]: 970 ± 210 nM
